Assay [1] has as its target T1, Farnesyl protein transferase (FPT) (Rattus norvegicus, UniProt Q02293+Q04631).
T1 construct: Farnesyl protein transferase (FPT) was partially purified from rat brain; from tissue; host or cells: rat brain
Put plainly: In vitro enzyme assay: inhibition of farnesyl protein transferase (transfer of [3H]farnesyl from [3H]farnesyl pyrophosphate to Ras-CVLS). The format is biochemical. The text has this:
1. In vitro enzyme assays: Inhibition of farnesyl protein transferase and geranylgeranyl protein transferase.
Farnesyl protein transferase (FPT) was partially purified from rat brain by ammonium sulfate fractionation followed by Q-Sepharose (Pharmacia, Inc.) anion exchange chromatography essentially as described by Yokoyama et al (Yokoyama, K., et al., (1991), A protein geranylgeranyltransferase from bovine brain: Implications for protein prenylation specificity, Proc. Natl. Acad. Sci USA 88: 5302-5306, the disclosure of which is incorporated herein by reference thereto). Human famesyl protein transferase was also expressed in E. coli, using cDNA clones encoding both the a and b subunits. The methods used were similar to those published (Omer, C. et al., (1993), Characterization of recombinant human farnesyl protein transferase: Cloning, expression, famesyl diphosphate binding, and functional homology with yeast prenyl-protein transferases, Biochemistry 32:5167-5176). Human famesyl protein transferase was partially-purified from the soluble protein fraction of E. coli as described above. […] Two forms of val^12-Ha-Ras protein were prepared as substrates for these enzymes, differing in their carboxy terminal sequence. One form terminated in cysteine-valine-leucine-serine (Ras-CVLS) the other in cystein-valine-leucine-leucine (Ras-CVLL). Ras-CVLS is a substrate for the famesyl protein transferase while Ras-CVLL is a substrate for geranylgeranyl protein transferase I. The cDNAs encoding these proteins were constructed so that the proteins contain an amino-terminal extension of 6 histidine residues. Both proteins were expressed in Escherichia coli and purified using metal chelate affinity chromatography. The radiolabelled isoprenyl pyrophosphate substrates, [^3H]farnesyl pyrophosphate and [^3H]geranylgeranyl pyrophosphate, were purchased from DuPont/New England Nuclear.
Several methods for measuring famesyl protein transferase activity have been described (Reiss et al 1990, Cell 62: 81; Schaber et al 1990, J. Biol. Chem. 265: 14701; Manne et al 1990, PNAS 87: 7541; and Barbacid & Manne 1993, U.S. Patent No. 5,185,248). […] The reaction was allowed to proceed for 30 minutes at room temperature and then stopped with 0.5 ml of 4% sodium dodecyl sulfate (SDS) followed by 0.5 ml of cold 30% TCA. Samples were allowed to sit on ice for 45 minutes and precipitated Ras protein was then collected on GF/C filter paper mats using a Brandel cell harvester. Filter mats were washed once with 6% TCA, 2% SDS and radioactivity was measured in a Wallac 1204 Betaplate BS liquid scintillation counter. Percent inhibition was calculated relative to the DMSO vehicle control.

Assay [2] has as its system Ras processing in COS monkey kidney cells. Put plainly: Cell-based assay: transient expression of val12-Ha-Ras-CVLS in COS cells, effect on Ras processing (immunoblot). As to conditions: Primates, read-out: INHIBITION OF RAS PROCESSING IC50. The text has this: 2. Cell-Based Assay: Transient expression of val^12-Ha-Ras-CVLS and val^12-Ha-Ras-CVLL in COS monkey kidney cells: Effect of famesyl protein transferase inhibitors on Ras processing and on disordered cell growth induced by transforming Ras.
COS monkey kidney cells were transfected by electroporation with the plasmid pSV-SPORT (Gibco/BRL) containing a cDNA insert encoding either Ras-CVLS or Ras-CVLL, leading to transient overexpression of a Ras substrate for either famesyl protein transferase or geranylgeranyl protein transferase I, respectively (see above).
Following electroporation, cells were plated into 6-well tissue culture dishes containing 1.5 ml of Dulbecco's-modified Eagle's media (GIBCO, Inc.) supplemented with 10% fetal calf serum and the appropriate famesyl protein transferase inhibitors. After 24 hours, media was removed and fresh media containing the appropriate drugs was re-added.
48 hours after electroporation cells were examined under the microscope to monitor disordered cell growth induced by transforming Ras. Cells expressing transforming Ras become more rounded and refractile and overgrow the monolayer, reminiscent of the transformed phenotype. Cells were then photographed, washed twice with 1 ml of cold phosphate-buffered saline (PBS) and removed from the dish by scraping with a rubber policeman into 1 ml of a buffer containing 25 mM Tris, pH 8.0; 1 mM ethylenediamine tetraacetic acid; 1 mM phenylmethylsulfonyl fluoride; […]; and 0.1 mM pepstatin. Cells were lysed by homogenization and cell debris was removed by centrifugation at 2000 × g for 10 min.
Cellular protein was precipitated by addition of ice-cold trichloroacetic acid and redissolved in […] of SDS-electrophoresis sample buffer. Samples ([…]) were loaded onto 14% polyacrylamide minigels (Novex, Inc.) and electrophoresed until the tracking dye neared the bottom of the gel. Proteins resolved on the gels were electroblotted onto nitrocellulose membranes for immunodetection.
Membranes were blocked by incubation overnight at 4°C in PBS containing 2.5% dried milk and 0.5% Tween-20 and then incubated with a Ras-specific monoclonal antibody, Y13-259 (Furth, M.E., et al., (1982), Monoclonal antibodies to the p21 products of the transforming gene of Harvey murine sarcome virus and of the cellular ras gene family, J. Virol. 43: 294-304), in PBS containing 1% fetal calf serum for one hour at room temperature. After washing, membranes were incubated for one hour at room temperature with a 1:5000 dilution of secondary antibody, rabbit anti-rat IgG conjugated to horseradish peroxidase, in PBS containing 1% fetal calf serum. The presence of processed and unprocessed Ras-CVLS or Ras-CVLL was detected using a colorimetric peroxidase reagent (4-chloro-1-naphthol) as described by the manufacturer (Bio-Rad).

Where [3] appears, read: FPT INHIBITION; read-out: FPT IC50.
Where [4] appears, read: read-out: FPT IC50; FPT INHIBITION

Like-named read-outs stand apart in the source and are kept apart here.

Broadly, the IC50 is the concentration that inhibits the measured activity by half. The inhibition is the change of the read-out against control, counted positive when it falls.

T1 sequence (Q02293 whole entry, one chain of several): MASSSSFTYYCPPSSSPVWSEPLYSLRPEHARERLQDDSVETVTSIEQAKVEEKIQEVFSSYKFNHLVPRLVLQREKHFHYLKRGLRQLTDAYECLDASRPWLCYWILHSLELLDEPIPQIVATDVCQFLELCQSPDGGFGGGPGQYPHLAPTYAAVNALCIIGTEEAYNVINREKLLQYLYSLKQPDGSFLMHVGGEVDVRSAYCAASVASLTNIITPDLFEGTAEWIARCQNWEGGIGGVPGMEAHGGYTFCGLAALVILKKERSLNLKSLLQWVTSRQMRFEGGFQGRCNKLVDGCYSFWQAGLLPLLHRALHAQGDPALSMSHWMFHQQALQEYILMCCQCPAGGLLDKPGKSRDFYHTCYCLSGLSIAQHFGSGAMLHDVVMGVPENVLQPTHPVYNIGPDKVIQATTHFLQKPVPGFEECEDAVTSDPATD

As to `O=C(CN1CCCC1=O)N1CCC(C2c3ncc(Br)cc3CCc3cc(Cl)cc(Cl)c32)CC1` (single isomer, unassigned) [Example 10], the 50% inhibitory concentration (IC50) in assay [1] (setting [3]) amounted to 0.019 µM; in assay [2] (ACTIVITY IN COS CELLS) it was 0.5 µM.

For `CN(C)C(=O)CCC(=O)N1CCC(C2c3ncc(Br)cc3CCc3cc(Cl)cc(Cl)c32)CC1` (single isomer, unassigned) [Example 13], the IC50 is 0.015 µM in assay [1] (setting [3]) and 0.2 µM in assay [2] (ACTIVITY IN COS CELLS).

As to `O=C(CCC(=O)N1CCC(C2c3ncc(Br)cc3CCc3cc(Cl)cc(Cl)c32)CC1)N1CCCC1` (single isomer, unassigned) [Example 14], the IC50 is 0.016 µM in assay [1] (setting [3]) and 0.25 µM in assay [2] (ACTIVITY IN COS CELLS).

For the compound `O=C(NCCCC(=O)N1CCC(C2c3ncc(Br)cc3CCc3cc(Cl)cc(Cl)c32)CC1)c1cccnc1` (single isomer, unassigned) [Example 18], the inhibition at 0.093 µM in assay [1] (@ 93 nM; read-out: FPT inhibition (percent inhibition)) amounted to 9%. Further, the IC50 in assay [2] (ACTIVITY IN COS CELLS) turned out to be 0.54 µM.

As for `CN(C)CCCC(=O)N1CCC(C2c3ncc(Br)cc3CCc3cc(Cl)cc(Br)c32)CC1` (single isomer, unassigned; (+)) [Example 2, (+)-4-(3,10-DIBROMO-8-CHLORO-6,11-DIHYDRO-5H-BENZO[5,6]CYCLO-HEPTA[1,2-b]PYRIDIN-11-YL)-1-[4-(DIMETHYLAMINO)-1-OXOBUTYL]PIPERIDINE], the half-maximal inhibitory concentration (IC50) in assay [1] (setting [3]) is 0.004 µM; in assay [2] (ACTIVITY IN COS CELLS), 0.013 µM.

Turning to `NC(=O)CCC(=O)N1CCC([C@H]2c3ncc(Br)cc3CCc3cc(Cl)cc(Br)c32)CC1` [Example 50, (+)-4-(3,10-DIBROMO-8-CHLORO-6,11-DIHYDRO-5H-BENZO[5,6]CYCLO-HEPTA[1,2-b]PYRIDIN-11(R)-YL)-GAMMA-OXO-1-PIPERIDININE BUTANAMIDE], the IC50 in assay [1] (setting [3]) came out at 0.014 µM.

In the case of `COC(=O)CCCC(=O)N1CCC([C@H]2c3ncc(Br)cc3CCc3cc(Cl)cc(Br)c32)CC1` [Example 51, (+)-METHYL 4-(3,10-DIBROMO-8-CHLORO-6,11-DIHYDRO-5H-BENZO[5,6]CYCLO-HEPTA[1,2-b]PYRIDIN-11(R)-YL)-DELTA-OXO-1-PIPERIDININE PENTANOATE], the concentration for half-maximal inhibition (IC50) in assay [1] (setting [3]) was 0.019 µM.

As to `O=C(O)CCCC(=O)N1CCC([C@H]2c3ncc(Br)cc3CCc3cc(Cl)cc(Br)c32)CC1` [Example 52, (+)-SODIUM 4-(3,10-DIBROMO-8-CHLORO-6,11-DIHYDRO-5H-BENZO[5,6]CYCLO-HEPTA[1,2-b]PYRIDlN-11(R)-YL)-DELTA-OXO-1-PI[…]], the IC50 in assay [1] (setting [4]) was found to be 0.044 µM.

`NC(=O)CCCC(=O)N1CCC([C@H]2c3ncc(Br)cc3CCc3cc(Cl)cc(Br)c32)CC1` [Example 53, (+)-4-(3,10-DIBROMO-8-CHLORO-6,11-DIHYDRO-5H-BENZO[5,6]CYCLO-HEPTA[1,2-b]PYRIDIN-11(R)-YL)-DELTA-OXO-1-PIPERIDININE PENTANAMIDE]: the IC50 in assay [1] (setting [3]) is 0.01 µM.

With `COC(=O)CCCCC(=O)N1CCC([C@H]2c3ncc(Br)cc3CCc3cc(Cl)cc(Br)c32)CC1` [Example 54, (+)-METHYL 4-(3,10-DIBROMO-8-CHLORO-6,11-DIHYDRO-5H-BENZO[5,6]CYCLO-HEPTA[1,2-b]PYRIDIN-11(R)-YL)-EPSILON-OXO -1-PIPERIDININE HEXANOATE], in assay [1] (setting [3]), the half-inhibitory concentration (IC50) is 0.015 µM.

Take `O=C(O)CCCCC(=O)N1CCC([C@H]2c3ncc(Br)cc3CCc3cc(Cl)cc(Br)c32)CC1` [Example 55, (+)-SODIUM 4-(3,10-DIBROMO-8-CHLORO-6,11-DIHYDRO-5H-BENZO[5,6]CYCLO-HEPTA[1,2-b]PYRIDIN-11(R)-YL)-EPSILON-OXO-1-PI[…]]: the IC50 in assay [1] (setting [4]) stood at 0.017 µM.

Take `NC(=O)CCCCC(=O)N1CCC([C@H]2c3ncc(Br)cc3CCc3cc(Cl)cc(Br)c32)CC1` [Example 56, (+)-4-(3,10-DIBROMO-8-CHLORO-6,11-DIHYDRO-5H-BENZO[5,6]CYCLO-HEPTA[1,2-b]PYRIDIN-11(R)-YL)-EPSILON-OXO-1-PIPERIDININE HEXANAMIDE]: the IC50 in assay [1] (setting [3]) is 0.007 µM.

As to `COC(=O)CCCCCC(=O)N1CCC([C@H]2c3ncc(Br)cc3CCc3cc(Cl)cc(Br)c32)CC1` [Example 57, (+)-METHYL 4-(3,10-DIBROMO-8-CHLORO-6,11-DIHYDRO-5H-BENZO[5,6]CYCLO-HEPTA[1,2-b]PYRIDIN-11(R)-YL)-OMEGA-OXO-1-PIPERIDININE HEPTANOATE], in assay [1] (setting [3]), the 50% inhibitory concentration (IC50) was determined as 0.011 µM.

Turning to `O=C(O)CCCCCC(=O)N1CCC([C@H]2c3ncc(Br)cc3CCc3cc(Cl)cc(Br)c32)CC1` [Example 58, (+)-SODIUM 4-(3,10-DIBROMO-8-CHLORO-6,11-DIHYDRO-5H-BENZO[5,6]CYCLO-HEPTA[1,2-b]PYRIDIN-11(R)-YL)-OMEGA-OXO -1-PIPERIDININE HEPTANOATE], the results for the IC50 in assay [1] (setting [3]) and in assay [2] (COS) were 0.0091 µM and 0.3 µM, respectively.

As to `NC(=O)CCCCCC(=O)N1CCC([C@H]2c3ncc(Br)cc3CCc3cc(Cl)cc(Br)c32)CC1` [Example 59, (+)-4-(3,10-DIBROMO-8-CHLORO-6,11-DIHYDRO-5H-BENZO[5,6]CYCLO-HEPTA[1,2-b]PYRIDIN-11(R)-YL)-OMEGA-OXO-1-PIPERIDININE HEPTANAMIDE], the IC50 in assay [1] (setting [3]) came to 0.0033 µM.

The values above are taken from EP0929544B1, “TRICYCLIC ANTITUMOR COMPOUNDS BEING FARNESYL PROTEIN TRANSFERASE INHIBITORS” (SCHERING CORPORATION, priority 1996, dated 1998).
